Tested on: 945468-187-T-J3-PDC spheroids with HUVEC/MSC, viability
Experiment: Anticancer human tumor 945468-187-T-J3-PDC patient-derived rectal carcinoma cell line growth inhibition [PI3K]
Conditions: for IC50: curve of first compound; for viability, T/C: stronger effect = lower value
From the text: Combinatorial screen of targeted agents with the PI3K inhibitors inavolisib, alpelisib, duvelisib, and copanlisib in multi-cell type tumor spheroids
A high-throughput screen of multi-cell type tumor spheroids was designed to identify active combinations of targeted small molecules and PI3K pathway inhibitors. Complex spheroids include a stromal component modeled by human endothelial cells (HUVEC) and fibroblasts modeled by human mesenchymal stem cells (MSCs). The concentration ranges selected for each drug and investigational agent were based upon clinically achievable concentrations if the clinical Cmax of the agent was known.
Compounds. The drugs and investigational agents: inavolisib (NSC800729), alpelisib (NSC765974), duvelisib (NSC772469), copanlisib (NSC816437), ipatasertib (NSC767898), afuresertib (NSC778305), talazoparib (NSC767125), sapanisertib (NSC764658), selumetinib (NSC741078), tovorafenib (DAY101, NSC766906), vemurafenib (NSC761431), ravoxertinib (NSC781343), sotorasib (NSC818433), MRTX1133 (NSC 836407), abemaciclib (NSC 768073), palbociclib (NSC758247), venetoclax (NSC 766270), SY5609 (NSC837396), enzalutamide (NSC755605), and darolutamide (NSC825331), were obtained from the National Cancer Institute (NCI) Developmental Therapeutics Program Chemical Repository. The FDA-approved anticancer drug set is available from the NCI Developmental Therapeutics Program. […] The stock solutions were prepared in dimethyl sulfoxide (DMSO, Sigma-Aldrich, St. Louis, MO, cat. D2650) at 800-fold the tested concentration and stored at -70 degrees C prior to their use. All drugs and investigational agents were tested over a range starting from a high concentration at or near the clinical Cmax and decreasing in half-log increments. If the clinical Cmax for an agent had not been determined, the highest concentration tested was 10 microM.
Cell Culture. All cells were maintained in an incubator at 37 degrees C and 5% CO2 with 95% humidity. The PDC lines were cultured according to standard operating procedures established by the NCI PDMR (https://pdmr.cancer.gov/sops/default.htm). All PDCs were thawed and cultured in Matrigel-coated flasks prepared with a working solution of 1X Ham's F-12 nutrient mix, without supplementation (Invitrogen, Waltham, MA, cat. 11765054), 100 U/mL penicillin-streptomycin (Invitrogen, cat. 15140122), and 2.5% Matrigel (Corning Inc., Corning, NY, cat. 354248) for the first three passages. The 354836-022-R-J1-PDC, 475296-252-R-J1-PDC, and 997726-040-R-J2-PDC lines were cultured in 6A media, which includes advanced DMEM/F-12 (Thermo Fisher Scientific, cat. 12634028), 10 mM HEPES (Thermo Fisher Scientific, cat. 15630080), 1X GlutaMAX supplement (Thermo Fisher Scientific, cat. 35050061), 0.1 mg/mL primocin (InvivoGen, San Diego, CA, cat. ant-pm-2), 10% defined fetal bovine serum, heat inactivated (HyClone Laboratories Inc., Logan, UT, cat. SH30070.03HI), 50% L-WRN conditioned media (ATCC, cat. CRL-3276), 1.25 mM N-Acetyl-L-cysteine (Sigma-Aldrich, cat. A9165), 10 mM nicotinamide (Sigma-Aldrich, cat. N0636), 1X B-27 supplement (Thermo Fisher Scientific, cat. 17504044), 1X N-2 supplement (Thermo Fisher Scientific, cat. 17502048), and 10 microM Y-27632 dihydrochloride (Tocris Bioscience, Bristol, United Kingdom, cat. 1254). The 624824-186-R-J2-PDC line was cultured in 6C/Colon 1B media, which includes all 6A media components plus 50 ng/mL human EGF recombinant protein (Thermo Fisher Scientific, cat. PHG0311). […]

[1] = second compound 0.0316 µM, first compound 0.00316 µM
[2] = second compound 0.0316 µM, first compound 0.01 µM
[3] = second compound 0.0316 µM, first compound 0.0316 µM
[4] = second compound 0.0316 µM, first compound 0.1 µM
[5] = second compound 0.1 µM, first compound 0.00316 µM
[6] = second compound 0.1 µM, first compound 0.01 µM
[7] = second compound 0.1 µM, first compound 0.0316 µM
[8] = second compound 0.1 µM, first compound 0.1 µM
[9] = second compound 0.316 µM, first compound 0.00316 µM
[10] = second compound 0.316 µM, first compound 0.01 µM
[11] = second compound 0.316 µM, first compound 0.0316 µM
[12] = second compound 0.316 µM, first compound 0.1 µM
[13] = second compound 1 µM, first compound 0.00316 µM
[14] = second compound 1 µM, first compound 0.01 µM
[15] = second compound 1 µM, first compound 0.0316 µM
[16] = second compound 1 µM, first compound 0.1 µM
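Further: spheroids exposed to agents for 7 days before viability read.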
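Wherever viability, T/C is given: 100% = DMSO vehicle control viability.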

## CCN1CCN(Cc2ccc(Nc3ncc(F)c(-c4cc(F)c5nc(C)n(C(C)C)c5c4)n3)nc2)CC1 + CC(Nc1ccc2c(c1)OCCn1cc(N3C(=O)OCC3C(F)F)nc1-2)C(N)=O
Second compound 0.00316 µM
  IC50: > 1000 nM
Second compound 0.01 µM
  IC50: > 1000 nM
Second compound 0.0316 µM
  IC50: > 1000 nM
Second compound 0.1 µM
  IC50: 539 nM
Second compound 0.316 µM
  IC50: 191 nM
Second compound 1 µM
  IC50: 29.5 nM
Second compound 0.00316 µM, first compound 0.00316 µM
  viability, T/C: 92%
Second compound 0.00316 µM, first compound 0.01 µM
  viability, T/C: 103%
Second compound 0.00316 µM, first compound 0.0316 µM
  viability, T/C: 98%
Second compound 0.00316 µM, first compound 0.1 µM
  viability, T/C: 95.6%
Second compound 0.00316 µM, first compound 0.316 µM
  viability, T/C: 95.2%
Second compound 0.00316 µM, first compound 1 µM
  viability, T/C: 93.1%
Second compound 0.01 µM, first compound 0.00316 µM
  viability, T/C: 89.4%
Second compound 0.01 µM, first compound 0.01 µM
  viability, T/C: 103%
Second compound 0.01 µM, first compound 0.0316 µM
  viability, T/C: 95.1%
Second compound 0.01 µM, first compound 0.1 µM
  viability, T/C: 106%
Second compound 0.01 µM, first compound 0.316 µM
  viability, T/C: 123%
Second compound 0.01 µM, first compound 1 µM
  viability, T/C: 70.1%
[1]
  viability, T/C: 104%
[2]
  viability, T/C: 96.7%
[3]
  viability, T/C: 94.2%
[4]
  viability, T/C: 97.3%
Second compound 0.0316 µM, first compound 0.316 µM
  viability, T/C: 102%
Second compound 0.0316 µM, first compound 1 µM
  viability, T/C: 53%
[5]
  viability, T/C: 91.2%
[6]
  viability, T/C: 102%
[7]
  viability, T/C: 94.1%
[8]
  viability, T/C: 94.1%
Second compound 0.1 µM, first compound 0.316 µM
  viability, T/C: 69%
Second compound 0.1 µM, first compound 1 µM
  viability, T/C: 28.1%
[9]
  viability, T/C: 87.7%
[10]
  viability, T/C: 77.5%
[11]
  viability, T/C: 77.8%
[12]
  viability, T/C: 69.7%
Second compound 0.316 µM, first compound 0.316 µM
  viability, T/C: 35%
Second compound 0.316 µM, first compound 1 µM
  viability, T/C: 23.4%
[13]
  viability, T/C: 76.9%
[14]
  viability, T/C: 56.7%
[15]
  viability, T/C: 48.6%
[16]
  viability, T/C: 43%
Second compound 1 µM, first compound 0.316 µM
  viability, T/C: 32.1%
Second compound 1 µM, first compound 1 µM
  viability, T/C: 25%

## CC(=O)c1c(C)c2cnc(Nc3ccc(N4CCNCC4)cn3)nc2n(C2CCCC2)c1=O + Cc1nc(NC(=O)N2CCCC2C(N)=O)sc1-c1ccnc(C(C)(C)C(F)(F)F)c1
Second compound 0.0316 µM
  IC50: > 100 nM
Second compound 0.1 µM
  IC50: > 100 nM
Second compound 0.316 µM
  IC50: > 100 nM
Second compound 1 µM
  IC50: > 100 nM
Second compound 3.16 µM
  IC50: > 100 nM
Second compound 10 µM
  IC50: 12.4 nM
Second compound 0.0316 µM, first compound 0.000316 µM
  viability, T/C: 98.8%
Second compound 0.0316 µM, first compound 0.001 µM
  viability, T/C: 100%
[1]
  viability, T/C: 90.7%
[2]
  viability, T/C: 107%
[3]
  viability, T/C: 97.5%
[4]
  viability, T/C: 104%
Second compound 0.1 µM, first compound 0.000316 µM
  viability, T/C: 91.5%
Second compound 0.1 µM, first compound 0.001 µM
  viability, T/C: 107%
[5]
  viability, T/C: 85.5%
[6]
  viability, T/C: 91%
[7]
  viability, T/C: 100%
[8]
  viability, T/C: 102%
Second compound 0.316 µM, first compound 0.000316 µM
  viability, T/C: 103%
Second compound 0.316 µM, first compound 0.001 µM
  viability, T/C: 101%
[9]
  viability, T/C: 103%
[10]
  viability, T/C: 97.9%
[11]
  viability, T/C: 99.8%
[12]
  viability, T/C: 94.3%
Second compound 1 µM, first compound 0.000316 µM
  viability, T/C: 111%
Second compound 1 µM, first compound 0.001 µM
  viability, T/C: 103%
[13]
  viability, T/C: 100%
[14]
  viability, T/C: 97.6%
[15]
  viability, T/C: 101%
[16]
  viability, T/C: 102%
Second compound 3.16 µM, first compound 0.000316 µM
  viability, T/C: 106%
Second compound 3.16 µM, first compound 0.001 µM
  viability, T/C: 93.2%
Second compound 3.16 µM, first compound 0.00316 µM
  viability, T/C: 90.5%
Second compound 3.16 µM, first compound 0.01 µM
  viability, T/C: 90.7%
Second compound 3.16 µM, first compound 0.0316 µM
  viability, T/C: 90.7%
Second compound 3.16 µM, first compound 0.1 µM
  viability, T/C: 76.2%
Second compound 10 µM, first compound 0.000316 µM
  viability, T/C: 57.6%
Second compound 10 µM, first compound 0.001 µM
  viability, T/C: 56%
Second compound 10 µM, first compound 0.00316 µM
  viability, T/C: 55.1%
Second compound 10 µM, first compound 0.01 µM
  viability, T/C: 49.3%
Second compound 10 µM, first compound 0.0316 µM
  viability, T/C: 46%
Second compound 10 µM, first compound 0.1 µM
  viability, T/C: 31.3%
